Assay results as given in patent US20190365843A1, “Antimicrobial Activity of Bioactive Compounds and Their Derivatives” (priority 2018, published 2019).

What was measured:
[1] = test system: Pleisiomonas sp.; assay: Agar diffusion growth inhibition zone, Pleisiomonas sp.; type: cell-based, Pleisiomonas species
Method: (§1) Among the bacterial agents tested Gram positive and Gram negative bacterial groups represented by Staphylococcus aureus and Enterococcus species and pathogenic members of Enterobacteriaceae, Vibronaceae, Aeromonadaceae, Pseudomonadaceae were tested. Freshly sub-cultured bacterial strains were inoculated into peptone water and incubated for 4 hours at 37° C. and adjusted to a turbidity of 0.5 (Gram Negative Bacilli), 1 (Gram Positive Cocci) and 4 (Pus cells, GNB, & few Budding yeast cells) Mc Farland standards (10^8 CFU/ml) respectively.
(§2) The different bioactive compounds and their derivatives were dissolved and diluted with solvents (DMSO), number of subsequent dilutions was performed to obtain different concentrations of the bioactive compounds and their derivatives. (Working Concentrations).
(§3) Agar well diffusion method is widely used to evaluate the antimicrobial activity of plants or other synthetic products. The suspension (microbial inoculum) was used to inoculate into Muller Hinton Agar Petri plates by lawn culture. Well (diameter 6 mm) were punched in the agar by sterile borer and filled with 50 μl of dissolved extracts. Plates were incubated in incubator at 37° C. for 24 hours and measured the growth inhibition zone diameters in mm compared with that of control (DMSO) showing no growth.
(§4) The bioactive compounds were tested with desired concentrations in 6 mm filter paper discs (Whatman, no. 3) were impregnated with 10 μL of each of the different dilutions. The discs were allowed to remain at room temperature until complete diluent evaporation and kept under refrigeration until ready to be used. 10 μL of diluents used to products were used as control. Tests were performed by Agar disk-diffusion testing method, which is the official method used in many clinical microbiology laboratories for routine antimicrobial susceptibility testing.
(§5) Similar to the procedure used in Agar well diffusion method, the suspension (microbial inoculum) was used to inoculate into Muller Hinton Agar Petri plates by lawn culture. Then, filter paper discs (about 6 mm in diameter), containing the test compound at a desired concentration, were placed on the agar surface. The Petri dishes were incubated under suitable incubation conditions.
(§6) Bioactive compounds showing zone of inhibition beyond the size of 6 mm are considered to be having an anti-microbial activity.

[2] = test system: Shigella sp.; assay: Agar diffusion growth inhibition zone, Shigella sp.; type: cell-based, Shigella species; conditions: Shigella
Method: (§7) Agar well diffusion method is widely used to evaluate the antimicrobial activity of plants or other synthetic products. The suspension (microbial inoculum) was used to inoculate into Muller Hinton Agar Petri plates by lawn culture. Well (diameter 6 mm) were punched in the agar by sterile borer and filled with 50 μl of dissolved extracts. Plates were incubated in incubator at 37° C. for 24 hours and measured the growth inhibition zone diameters in mm compared with that of control (DMSO) showing no growth. The antimicrobial agent diffuses in the agar medium and inhibits the growth of the microbial strain tested (Valgas et al., (2016) Methods for in vitro evaluating antimicrobial activity: A review. Journal of Pharmaceutical Analysis. 6(2):71-9).
(§8) Similar to the procedure used in Agar well diffusion method, the suspension (microbial inoculum) was used to inoculate into Muller Hinton Agar Petri plates by lawn culture. Then, filter paper discs (about 6 mm in diameter), containing the test compound at a desired concentration, were placed on the agar surface. The Petri dishes were incubated under suitable incubation conditions. Generally, antimicrobial agent diffuses into the agar and inhibits germination and growth of the test microorganism and then the diameters of inhibition growth zones are measured (Valgas et al., (2007) Screening methods to determine antibacterial activity of natural products. Brazilian Journal of Microbiology. 38:369-80; Balouiri M et al., (2016) Methods for in vitro evaluating antimicrobial activity: A review. Journal of Pharmaceutical Analysis. 6(2):71-9).

[3] = test system: Aeromonas sp.; assay: Agar diffusion growth inhibition zone, Aeromonas sp.; type: cell-based, Aeromonas species; conditions: Aeromonas sp., 6 mm = no activity
Method: as §1, §2, §3, §4, §5, §6

[4] = test system: Vibrio cholera; assay: Agar diffusion growth inhibition zone, Vibrio cholera; type: cell-based, Vibrio cholerae; conditions: Vibrio cholerae
Method: as §7, §8

[5] = test system: Enterococcus sp.; assay: Agar diffusion growth inhibition zone, Enterococcus sp.; type: cell-based, Enterococcus species; conditions: 6 mm = no activity
Method: as §1, §2, §3, §4, §5, §6

[6] = test system: Candida abicans; assay: Agar diffusion growth inhibition zone, Candida abicans; type: cell-based, Candida albicans; conditions: 6 mm = no activity
Method: as §1, §2, §3, §4, §5, §6

[7] = test system: Salmonella typhimurium; assay: Agar diffusion growth inhibition zone, Salmonella typhimurium; type: cell-based; conditions: Salmonella enterica, 6 mm = no activity
Method: as §1, §2, §3, §4, §5, §6

[8] = test system: Klebsiella sp.; assay: Agar diffusion growth inhibition zone, Klebsiella sp.; type: cell-based, Klebsiella species; conditions: 6 mm = no activity
Method: as §1, §2, §3, §4, §5, §6

[9] = test system: S. aureus; assay: Agar diffusion growth inhibition zone, S. aureus; type: cell-based, Staphylococcus aureus; conditions: Staphylococcus aureus, 6 mm = no activity
Method: as §1, §2, §3, §4, §5, §6

[10] = test system: Citrobacter sp.; assay: Agar diffusion growth inhibition zone, Citrobacter sp.; type: cell-based, Citrobacter species; conditions: 6 mm = no activity
Method: as §1, §2, §3, §4, §5, §6

[11] = test system: EAEC; assay: Agar diffusion growth inhibition zone, EAEC; type: cell-based, Enteroaggregative E. coli; conditions: Escherichia coli, 6 mm = no activity
Method: as §1, §2, §3, §4, §5, §6

[12] = test system: E. coli ATCC 25922; assay: Agar diffusion growth inhibition zone, E. coli ATCC 25922; type: cell-based; conditions: Escherichia coli, 6 mm = no activity; for zone of inhibition at 100 mg/mL: ATCC25922, 100 mg
Method: as §1, §2, §3, §4, §5, §6

[13] = test system: Pseudomonas sp.; assay: Agar diffusion growth inhibition zone, Pseudomonas sp.; type: cell-based, Pseudomonas species; conditions: Pseudomonas
Method: as §7, §8

[14] = test system: Proteus sp.; assay: Agar diffusion growth inhibition zone, Proteus sp.; type: cell-based, Proteus species; conditions: Proteus sp.; 150 mg; 6 mm = no activity
Method: as §1, §2, §3, §4, §5, §6

[15] = Pleisiomonas sp., 6 mm = no activity

Compound | zone of inhibition at 100 mg/mL [1, 15] [mm] | zone of inhibition at 100000 µg/disc [2] [mm] | zone of inhibition at 100 mg/mL [3] [mm] | zone of inhibition at 100000 µg/disc [4] [mm] | zone of inhibition at 100 mg/mL [5] [mm] | zone of inhibition at 100 mg/mL [6] [mm] | zone of inhibition at 100 mg/mL [7] [mm] | zone of inhibition at 100 mg/mL [8] [mm] | zone of inhibition at 100 mg/mL [9] [mm] | zone of inhibition at 100 mg/mL [10] [mm] | zone of inhibition at 100 mg/mL [11] [mm] | zone of inhibition at 100 mg/mL [12] [mm] | zone of inhibition at 100000 µg/disc [13] [mm] | also measured
COc1cc(/C=C/C(=O)OCC(=O)/C=C/c2ccc(O)cc2)ccc1O [compound 12, Demethoxycalebin- A2] | 10 | 6 | 6 | 6 | 6 | 6 | 6 | 6 | 6 | 6 | 6 | 6 | 6 | –
COc1cc(/C=C/C(=O)COC(=O)/C=C/c2ccc(O)cc2)ccc1O [compound 11, Demethoxycalebin- A1] | 6 | 6 | 6 | 6 | 6 | 6 | 6 | 6 | 6 | 6 | 6 | 6 | 6 | –
COc1cc(CCc2cc(CCc3ccc(O)c(OC)c3)on2)ccc1O [compound 8, Tetrahydrocurcumin Isoxazole] | 6 | 6 | 6 | 6 | 6 | 6 | 6 | 6 | 6 | 6 | 8 | 6 | 6 | zone of inhibition at 150 mg/mL ([1]; Pleisiomonas sp., 150 mg, 6 mm = no activity): 6 mm; zone of inhibition at 150000 µg/disc [2]: 6 mm; zone of inhibition at 150 mg/mL ([3]; 150 mg): 6 mm; zone of inhibition at 150000 µg/disc [4]: 6 mm; zone of inhibition at 150 mg/mL ([5]; 150 mg): 6 mm; zone of inhibition at 150 mg/mL ([6]; 150 mg): 6 mm; zone of inhibition at 150 mg/mL ([7]; 150 mg): 6 mm; zone of inhibition at 150 mg/mL ([8]; 150 mg): 6 mm; zone of inhibition at 150 mg/mL ([9]; 150 mg): 6 mm; zone of inhibition at 150 mg/mL ([10]; 150 mg): 6 mm; zone of inhibition at 150 mg/mL [14]: 6 mm; zone of inhibition at 150 mg/mL ([11]; 150 mg): 8 mm; zone of inhibition at 150 mg/mL ([12]; ATCC25922, 150 mg): 6 mm; zone of inhibition at 150000 µg/disc [13]: 6 mm
Demethoxycalebin-A | – | – | – | – | – | – | – | – | – | – | – | – | – | inhibition of growth ([1]; Plesiomonas species): inhibited
